Reference: patent US12577213B2 (NINGBO COMBIREG PHARMACEUTICAL TECHNOLOGY CO., LTD., priority 2020, dated 2026)
Like-named read-outs stand apart in the source and are kept apart here.

Experiments:
[1] = Metabolic stability in vivo (plasma half-life after IV); settings: intravenously at 1 mg/kg, male BALB/c nude mice; for half-life: mouse, plasma, iv, read-out: T½ of (IV in nude mice) (converted)
Procedure: The intravenous injection group of the embodiment compound was prepared with the mixed solvent of DMA:PEG400:30% SBECD=5:25:70 to form a 0.2 mg/mL of solution, and administered intravenously at 1 mg/kg of weight; and the oral preparation group was prepared with 0.5% MC to form a 1 mg/mL of solution, and administered by oral gavage at 10 mg/kg weight.
• Male BALB/c nude mice, 4-5 weeks old, purchased from Shanghai SLAC. 3. Experiment Method: 3.1 Instruments: • Liquid chromatography system: Shimadzu liquid chromatography system Shimadzu LC-30AD • MS/MS system: Applied Biosystems API5500 • Data collection: Analyst Software 1.5.2 3.2 Chromatographic Conditions Chromatographic Column • Analytical column: Kinetex 2.6u C18 100 A column (3.0 mm×30 mm) • Mobile phase: A: 10 mM NH4OAc (0.1% FA); B: Acetonitrile with 0.1% […] • Flow rate: 1.0 mL/min
Ion source was an electron spray ionization (ESI source) with negative ion detection; spray voltage source was 5500 V; ion source gas 1 (N2) was 50 psi; ion source gas 2 (N2) was 50 psi; air curtain gas (N2) was 30 psi. Scanning mode was multiple reaction monitoring (MRM); scanning time was 80 ms; collision gas pressure was 10 psi;
Grouping experiment, with three animals in each group, starting from now on, administration was started according to the weight of the animals. Blood was collected according to 5 min, 15 min, 30 min, 1 h, 2 h, 4 h, 8 h and 24 h after administration.
To 25.0 μL of plasma, 25.0 μL of internal standard solution (Tolbutamide (250 ng/mL) in acetonitrile), 25.0 μL of acetonitrile and 100 μL of acetonitrile were added, and the mixture was vortexed for 1 min, and centrifuged for 5 min (14000 rpm). 120 μL of the resulting supernatant was added with 80.0 μL of water (containing 1% formic acid) and mixed well, then analyzed by LC/MS/MS.

[2] = Liver microsomes stability; assay type: in vitro ADME, human; settings: for half-life at 1 μM: human, human liver microsomes
How it was run: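 Compound at 1 μM final incubated with 1 mg/mL human liver microsomes and 1 mM NADPH (no-NADPH control), sampled at 0, 5, 15, 30, 60 min. Remaining parent quantified by LC-MS/MS; T1/2 = 0.693/k.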

HS 578T (breast cancer) = experiment: NCI method SRB growth inhibition, HS 578T; assay type: cell-based; settings: Homo sapiens, HS578T, treated 48 hours, SRB stain
How it was run: (§1)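 Cells were exposed to compound for 48 h, with a parallel plate fixed at the time of dosing (Tz) and a vehicle control (C). SRB staining was read at OD 515 nm. GI50 is the concentration at 50% growth relative to C−Tz, TGI is where Ti=Tz, and LC50 is −50% relative to Tz.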

786-0 (renal cancer) = experiment: NCI method SRB growth inhibition, 786-0; assay type: cell-based; settings: Homo sapiens; 786-0, treated 48 hours, SRB stain
How it was run: as §1

HCT116 (colon cancer) = experiment: NCI method SRB growth inhibition, HCT116; assay type: cell-based; settings: Homo sapiens, HCT-116; HCT116, treated 48 hours, SRB stain
How it was run: as §1

[3] = test system: SF295 (central nervous system tumor); experiment: NCI method SRB growth inhibition, SF295; assay type: cell-based; settings: Homo sapiens, SF-295; SF295, treated 48 hours, SRB stain
How it was run: as §1

K562 (leukemia) = experiment: NCI method SRB growth inhibition, K562; assay type: cell-based; settings: Homo sapiens; K562, treated 48 hours, SRB stain
How it was run: as §1

[4] = test system: A549 (non-small cell lung cancer); experiment: NCI method SRB growth inhibition, A549; assay type: cell-based; settings: Homo sapiens; A549, treated 48 hours, SRB stain
How it was run: as §1

PC-3 (prostate cancer) = experiment: NCI method SRB growth inhibition, PC-3; assay type: cell-based; settings: Homo sapiens; PC-3, treated 48 hours, SRB stain
How it was run: as §1

LOX-IMVI (melanoma) = experiment: NCI method SRB growth inhibition, LOX-IMVI; assay type: cell-based; settings: Homo sapiens, treated 48 hours, SRB stain
How it was run: as §1

OVCAR-3 (ovarian cancer) = experiment: NCI method SRB growth inhibition, OVCAR-3; assay type: cell-based; settings: Homo sapiens; OVCAR-3, treated 48 hours, SRB stain
How it was run: as §1

[5] = test system: breast cancer cell line SUM159 sphere; experiment: Breast cancer stem cell sphere formation; assay type: cell-based, human; settings: 50 nM; for formation of the sphere after cell passage: 5 days of drug treatment, then passage
Procedure: The inhibitory effects of embodiment compounds 5, 7, 11, 13, 14, 20 and 21 on the formation of breast cancer cell line SUM159 sphere are described as follows.
The breast cancer cell line SUM159 sphere was cultured with serum-free medium in an ultra-low adsorption plate, the basal medium was DMEM/F12 (without phenol red), and B27 (without vitamin A) (1×), EGF (20 ng/ml), bFGF (20 ng/ml) and insulin (insulin, 5 ug/ml) were added.
An equal number (4000) of SUM159 cells per well were inoculated into an ultra-low adsorption 24 plate, and the sphere was photographed after 5 days of culture, replaced with fresh medium, and treated with drugs at certain concentrations, respectively. Compounds 5, 7, 11, 13, 14, 20 and 21 were evaluated in this experiment at 50 nM, respectively. The effect of the drug on the sphere phenotype could be observed after about 3 days of drug treatment. The sphere was photographed again after 5 days of drug treatment, and then the sphere was passaged. The sphere was photographed again after 7 days of passage.
The differences of the photographs taken in three different stages were counted and compared, and the killing effect of the tested compounds on SUM159 sphere was evaluated through the differences of sphere formation after passage, thus reflecting the inhibitory effects of different compounds on breast cancer stem cells.

[6] = as repeated in Table 4, read-out: T½ of HLM (in vitro)
[7] = 1 μM compound, 1 mg/mL human liver microsomes, 1 mM NADPH
[8] = 1 μM compound, 1 mg/mL human liver microsomes, 1 mM NADPH, read-out: T½ of HLM

Row | half-life [1] | half-life at 1 μM [2, 6] | microsomal CLint at 1 μM [2, 7] | half-life at 1 μM [2, 8] | T½ of (IV in nude mice) [1] | SMILES | GI50 (HS 578T (breast cancer)) | GI50 (786-0 (renal cancer)) | GI50 (HCT116 (colon cancer)) | GI50 [3] | GI50 (K562 (leukemia)) | GI50 [4] | GI50 (PC-3 (prostate cancer)) | GI50 (LOX-IMVI (melanoma)) | GI50 (OVCAR-3 (ovarian cancer)) | killing effect on SUM159 sphere [5] | formation of the sphere after cell passage [5]
1 | 46.6 min | 100 min | – | – | – | COc1cc(C(=O)Nc2cc3c(cc2Oc2cc(C)cc(C)c2)C(=O)N[C@@H](CC(=O)N(C)C)C(=O)N3)c(Br)c(OC)c1OC [d, reference compound] | – | – | – | – | – | – | – | – | – | – | –
2 | – | – | 13.9 µL/min/mg | 49.9 min | – | [2H]C([2H])([2H])C([2H])([2H])N(C(=O)C[C@@H]1NC(=O)c2cc(Oc3cc(C)cc(C)c3)c(NC(=O)c3cc(OC)c(OC)c(OC)c3Br)cc2NC1=O)C([2H])([2H])C([2H])([2H])[2H] [Compound 7, (S)-2-bromo-N-[3-[2-[bis(pentadeuteroethyl)amino]-2-oxoethyl]-7-(3,5-dimethylphenoxy)-2,5-dioxo-2,3,4,5-tetrahydro-1H-benzo[e][1,4]diazepin-8-yl]-3,4,5-trimethoxybenzamide] | 8.2 nM | 6.5 nM | < 5 nM | < 5 nM | – | < 5 nM | < 5 nM | < 5 nM | < 5 nM | strong killing effect | significantly reduced
3 | – | 11 min | 63.1 µL/min/mg | 11 min | 31.9 min | CCN(CC)C(=O)C[C@H]1C(=O)Nc2cc(NC(=O)c3cc(OC)c(OC)c(OC)c3Br)c(Oc3cc(C)cc(C)c3)cc2C(=O)N1C [a, reference compound] | – | – | – | – | – | – | – | – | – | – | –
4 | – | – | 14.8 µL/min/mg | 46.8 min | – | [2H]C([2H])([2H])Oc1cc(C(=O)Nc2cc3c(cc2Oc2cc(C)cc(C)c2)C(=O)N(C)[C@@H](CC(=O)N(C([2H])([2H])C([2H])([2H])[2H])C([2H])([2H])C([2H])([2H])[2H])C(=O)N3)c(Br)c(OC([2H])([2H])[2H])c1OC([2H])([2H])[2H] [Compound 13, (S)-2-bromo-N-[3-[2-[bis(pentadeuteroethyl)amino]-2-oxoethyl]-7-(3,5-dimethylphenoxy)-4-methyl-2,5-dioxo-2,3,4,5-tetrahydro-1H-benzo[e][1,4]diazepin-8-yl]-3,4,5-tris(trideuteromethoxy)benzamide] | < 5 nM | 11.5 nM | < 5 nM | 7.5 nM | < 5 nM | < 5 nM | < 5 nM | < 5 nM | < 5 nM | strong killing effect | significantly reduced

Continued, compound first:

Row | SMILES | half-life [1] | half-life at 1 μM [2, 6] | microsomal CLint at 1 μM [2, 7] | half-life at 1 μM [2, 8] | T½ of (IV in nude mice) [1] | GI50 (HS 578T (breast cancer)) | GI50 (786-0 (renal cancer)) | GI50 (HCT116 (colon cancer)) | GI50 [3] | GI50 (K562 (leukemia)) | GI50 [4] | GI50 (PC-3 (prostate cancer)) | GI50 (LOX-IMVI (melanoma)) | GI50 (OVCAR-3 (ovarian cancer)) | killing effect on SUM159 sphere [5] | formation of the sphere after cell passage [5]
5 | [2H]C([2H])([2H])C([2H])([2H])N(C(=O)C[C@@H]1NC(=O)c2cc(Oc3cc(C)cc(C)c3)c(NC(=O)c3cc(OC)c(OC)c(OC)c3Cl)cc2NC1=O)C([2H])([2H])C([2H])([2H])[2H] [Compound 8, (S)-2-chloro-N-[3-[2-[bis(pentadeuteroethyl)amino]-2-oxoethyl]-7-(3,5-dimethylphenoxy)-2,5-dioxo-2,3,4,5-tetrahydro-1H-benzo[e][1,4]diazepin-8-yl]-3,4,5-trimethoxybenzamide] | 38 min | 50.6 min | 13.7 µL/min/mg | 50.6 min | – | 13.3 nM | 13.9 nM | < 5 nM | 10.3 nM | < 5 nM | 15.3 nM | 9.7 nM | < 5 nM | 5 nM | – | –
6 | [2H]C([2H])([2H])Oc1cc(C(=O)Nc2cc3c(cc2Oc2cc(C)cc(C)c2)C(=O)N(C)[C@@H](CC(=O)N(C([2H])([2H])[2H])C([2H])([2H])[2H])C(=O)N3)c(Br)c(OC([2H])([2H])[2H])c1OC([2H])([2H])[2H] [Compound 14, (S)-2-bromo-N-[3-[2-[bis(trideuteromethyl)amino]-2-oxoethyl]-7-(3,5-dimethylphenoxy)-4-methyl-2,5-dioxo-2,3,4,5-tetrahydro-1H-benzo[e][1,4]diazepin-8-yl]-3,4,5-tris(trideuteromethoxy)benzamide] | – | – | 11.3 µL/min/mg | 61.3 min | – | – | 5 nM | < 5 nM | < 5 nM | < 5 nM | < 5 nM | < 5 nM | < 5 nM | < 5 nM | strong killing effect | significantly reduced
7 | [2H]C([2H])([2H])C([2H])([2H])N(C(=O)C[C@H]1C(=O)Nc2cc(NC(=O)c3cc(OC)c(OC)c(OC)c3Br)c(Oc3cc(C)cc(C)c3)cc2C(=O)N1C)C([2H])([2H])C([2H])([2H])[2H] [Compound 11, (S)-2-bromo-N-[3-[2-[bis(pentadeuteroethyl)amino]-2-oxoethyl]-7-(3,5-dimethylphenoxy)-4-methyl-2,5-dioxo-2,3,4,5-tetrahydro-1H-benzo[e][1,4]diazepin-8-yl]-3,4,5-trimethoxybenzamide] | – | – | 28.2 µL/min/mg | 24.6 min | – | < 5 nM | 10.4 nM | 15.7 nM | 10.9 nM | < 5 nM | < 5 nM | < 5 nM | < 5 nM | < 5 nM | strong killing effect | significantly reduced
8 | [2H]C([2H])([2H])C([2H])([2H])N(C(=O)C[C@H]1C(=O)Nc2cc(NC(=O)c3cc(OC)c(OC)c(OC)c3Cl)c(Oc3cc(C)cc(C)c3)cc2C(=O)N1C)C([2H])([2H])C([2H])([2H])[2H] [Compound 12, (S)-2-chloro-N-[3-[2-[bis(pentadeuteroethyl)amino]-2-oxoethyl]-7-(3,5-dimethylphenoxy)-4-methyl-2,5-dioxo-2,3,4,5-tetrahydro-1H-benzo[e][1,4]diazepin-8-yl]-3,4,5-trimethoxybenzamide] | 34 min | 22.6 min | 30.7 µL/min/mg | 22.6 min | – | 13.3 nM | 9.9 nM | < 5 nM | 10.8 nM | < 5 nM | < 5 nM | 5.4 nM | < 5 nM | 12.6 nM | – | –
